Assay results: the OPERA property sets (Mansouri et al. 2018)

Row | Compound | logP
1 | O=C1c2ccccc2C(=O)C1c1ccc2ccccc2n1 | 4.1
2 | COc1cc(N)c2c(c1N)C(=O)c1ccccc1C2=O | 3.5
3 | N#CCCN(CCO)c1ccc(N=Nc2ccc([N+](=O)[O-])cc2Cl)cc1 | 4
4 | Cc1cc(N(CCO)CCO)ccc1N=Nc1ccc([N+](=O)[O-])cc1Cl | 4.3
5 | CCN(CCO)c1ccc(N=Nc2ccc([N+](=O)[O-])cc2)cc1 | 4.3
6 | O=C1c2ccccc2C(=O)C1c1nc2ccccc2cc1O | 5
7 | COc1cc(N=Nc2c(Br)cc([N+](=O)[O-])cc2[N+](=O)[O-])c(NC(C)=O)cc1N(CCOC(C)=O)CCOC(C)=O | 4.8
8 | CNc1cccc2c1C(=O)c1ccccc1C2=O | 4.1
9 | C=CCN(CCC#N)c1cc(NC(C)=O)c(N=Nc2c(Br)cc([N+](=O)[O-])cc2[N+](=O)[O-])cc1OC | 5.4
10 | CCn1c(O)c(N=Nc2ccc(Cl)cc2[N+](=O)[O-])c(C)c(C#N)c1=O | 3.4
11 | O=[N+]([O-])c1cc(S(=O)(=O)Nc2ccccc2)ccc1Nc1ccccc1 | 4.6
12 | Nc1ccc(N)c2c1C(=O)c1ccccc1C2=O | 3
